Assay results published in ChEMBL document CHEMBL4308841, “Synthesis, in vitro antiproliferative activity, and kinase inhibitory effects of pyrazole-containing diarylureas and diarylamides” (Eur J Med Chem, 2018).

Tests used:
M14 [1] = experiment: Growth inhibition of human M14 cells assessed as cell growth at 1 uM incubated for 48 hrs by sulforhodamine B assay relative to control; assay type: functional; conditions: M14, 48 h, read-out: Activity
NCI-H460 = experiment: Growth inhibition of human NCI-H460 cells assessed as cell growth at 0.1 uM incubated for 48 hrs by sulforhodamine B assay relative to control; assay type: functional; conditions: NCI-H460, 48 h, read-out: Activity
SF-268 [2] = experiment: Growth inhibition of human SF268 cells incubated for 48 hrs by sulforhodamine B assay; assay type: functional, cell-based; conditions: SF-268, 48 h
HOP-62 = experiment: Growth inhibition of human HOP62 cells assessed as cell growth at 0.01 uM incubated for 48 hrs by sulforhodamine B assay relative to control; assay type: functional; conditions: HOP-62, 48 h, read-out: Activity
MCF7 = experiment: Growth inhibition of human MCF7 cells incubated for 48 hrs by sulforhodamine B assay; assay type: functional, cell-based; conditions: MCF7, 48 h
786-0 = experiment: Growth inhibition of human 786-0 cells incubated for 48 hrs by sulforhodamine B assay; assay type: functional, cell-based; conditions: 786-0, 48 h
OVCAR-4 = experiment: Growth inhibition of human OVCAR4 cells assessed as cell growth at 1 uM incubated for 48 hrs by sulforhodamine B assay relative to control; assay type: functional; conditions: OVCAR-4, 48 h, read-out: Activity
SK-MEL-5 [3] = experiment: Growth inhibition of human SK-MEL-5 cells assessed as cell growth at 1 uM incubated for 48 hrs by sulforhodamine B assay relative to control; assay type: functional; conditions: SK-MEL-5, 48 h, read-out: Activity
OVCAR-5 = experiment: Growth inhibition of human OVCAR5 cells assessed as cell growth at 1 uM incubated for 48 hrs by sulforhodamine B assay relative to control; assay type: functional; conditions: OVCAR-5, 48 h, read-out: Activity
SK-MEL-5 [4] = experiment: Growth inhibition of human SK-MEL-5 cells incubated for 48 hrs by sulforhodamine B assay; assay type: functional, cell-based; conditions: SK-MEL-5, 48 h
Malme-3M = experiment: Growth inhibition of human MALME-3M cells assessed as cell growth at 100 uM incubated for 48 hrs by sulforhodamine B assay relative to control; assay type: functional; conditions: read-out: Activity
A549 = experiment: Growth inhibition of human A549/ATCC cells assessed as cell growth at 100 uM incubated for 48 hrs by sulforhodamine B assay relative to control; assay type: functional; conditions: A549, 48 h, read-out: Activity
SK-MEL-28 = experiment: Growth inhibition of human SK-MEL-28 cells assessed as cell growth at 100 uM incubated for 48 hrs by sulforhodamine B assay relative to control; assay type: functional; conditions: SK-MEL-28, 48 h, read-out: Activity
BT-549 [5] = experiment: Growth inhibition of human BT549 cells assessed as cell growth at 1 uM incubated for 48 hrs by sulforhodamine B assay relative to control; assay type: functional; conditions: BT-549, 48 h, read-out: Activity
BT-549 [6] = experiment: Growth inhibition of human BT549 cells incubated for 48 hrs by sulforhodamine B assay; assay type: functional, cell-based; conditions: BT-549, 48 h
SF-268 [7] = experiment: Growth inhibition of human SF268 cells assessed as cell growth at 100 uM incubated for 48 hrs by sulforhodamine B assay relative to control; assay type: functional; conditions: SF-268, 48 h, read-out: Activity
MOLT-4 = experiment: Growth inhibition of human MOLT4 cells incubated for 48 hrs by sulforhodamine B assay; assay type: functional, cell-based; conditions: MOLT-4, 48 h
SK-MEL-2 = experiment: Growth inhibition of human SK-MEL-2 cells incubated for 48 hrs by sulforhodamine B assay; assay type: functional, cell-based; conditions: SK-MEL-2, 48 h
M14 [8] = experiment: Growth inhibition of human M14 cells assessed as cell growth at 0.1 uM incubated for 48 hrs by sulforhodamine B assay relative to control; assay type: functional; conditions: M14, 48 h, read-out: Activity
NCI-H226 = experiment: Growth inhibition of human NCI-H226 cells incubated for 48 hrs by sulforhodamine B assay; assay type: functional, cell-based; conditions: NCI-H226, 48 h
SR = experiment: Growth inhibition of human SR cells incubated for 48 hrs by sulforhodamine B assay; assay type: functional, cell-based
SNB-75 = experiment: Growth inhibition of human SNB75 cells assessed as cell growth at 1 uM incubated for 48 hrs by sulforhodamine B assay relative to control; assay type: functional; conditions: SNB-75, 48 h, read-out: Activity
NCI-H522 = experiment: Growth inhibition of human NCI-H522 cells assessed as cell growth at 100 uM incubated for 48 hrs by sulforhodamine B assay relative to control; assay type: functional; conditions: NCI-H522, 48 h, read-out: Activity
SN12C = experiment: Growth inhibition of human SN12C cells assessed as cell growth at 100 uM incubated for 48 hrs by sulforhodamine B assay relative to control; assay type: functional; conditions: read-out: Activity
U-251 = experiment: Growth inhibition of human U251 cells assessed as cell growth at 0.01 uM incubated for 48 hrs by sulforhodamine B assay relative to control; assay type: functional; conditions: U-251, 48 h, read-out: Activity
SF-539 = experiment: Growth inhibition of human SF539 cells incubated for 48 hrs by sulforhodamine B assay; assay type: functional, cell-based; conditions: SF-539, 48 h
[9] = read-out: LC50 (the source's name)
[10] = read-out: pLC50 (the source's name) (converted)

`COc1cc(Cl)cc(-c2nn(-c3cccc(NC(=O)Nc4ccc(Cl)c(Cl)c4)c3)cc2-c2ccncc2)c1` showed a growth at 1 µM (M14 [1]) of 82%, a growth at 0.1 µM (NCI-H460) of 100% and a GI50 (SF-268 [2]; read-out: GI50) of 3.27 µM. The CC50 (SF-268 [2]; [9]) was > 100 µM, the TGI (SF-268 [2]; read-out: TGI) was > 100 µM and the GI50 (SF-268 [2]; read-out: pGI50 (converted)) was 3.24 µM. For the same compound, the CC50 (SF-268 [2]; [10]) was > 100 µM, the TGI (SF-268 [2]; read-out: pTGI (converted)) was > 100 µM and the growth at 0.01 µM (HOP-62) was 92%. For the same compound, the GI50 (MCF7; read-out: GI50) was 2.56 µM, the LC50 (MCF7; read-out: LC50) was > 100 µM and the TGI (MCF7; read-out: TGI) was 13.2 µM. The GI50 (MCF7; read-out: pGI50 (converted)) was 2.57 µM, the LC50 (MCF7; read-out: pLC50 (converted)) was > 100 µM and the TGI (MCF7; read-out: pTGI (converted)) was 13.2 µM. The GI50 (786-0; read-out: GI50) was 2.31 µM, the CC50 (786-0; [9]) was > 100 µM and the TGI (786-0; read-out: TGI) was 75.4 µM. For the same compound, the GI50 (786-0; read-out: pGI50 (converted)) was 2.29 µM, the CC50 (786-0; [10]) was > 100 µM and the TGI (786-0; read-out: pTGI (converted)) was 7.76 µM. The growth at 1 µM (OVCAR-4) was 83%, the growth at 1 µM (SK-MEL-5 [3]) was 88% and the growth at 1 µM (OVCAR-5) was 87%. It also gave a GI50 (SK-MEL-5 [4]; read-out: GI50) of 1.52 µM, a CC50 (SK-MEL-5 [4]; [9]) of 6.23 µM and a TGI (SK-MEL-5 [4]; read-out: TGI) of 31.7 µM. The GI50 (SK-MEL-5 [4]; read-out: pGI50 (converted)) was 1.62 µM, the CC50 (SK-MEL-5 [4]; [10]) was 6.17 µM and the TGI (SK-MEL-5 [4]; read-out: pTGI (converted)) was 3.16 µM. The growth at 100 µM (Malme-3M) was -24%, the growth at 100 µM (A549) was -10% and the growth at 100 µM (SK-MEL-28) was -7%. For the same compound, the growth at 1 µM (BT-549 [5]) was 92%, the GI50 (BT-549 [6]; read-out: GI50) was 2.52 µM and the CC50 (BT-549 [6]; [9]) was > 100 µM. The TGI (BT-549 [6]; read-out: TGI) was 62.5 µM, the GI50 (BT-549 [6]; read-out: pGI50 (converted)) was 2.63 µM and the CC50 (BT-549 [6]; [10]) was > 100 µM. For the same compound, the TGI (BT-549 [6]; read-out: pTGI (converted)) was 8.32 µM, the growth at 100 µM (SF-268 [7]) was 11% and the GI50 (MOLT-4; read-out: GI50) was 1.59 µM. For the same compound, the CC50 (MOLT-4; [9]) was > 100 µM, the TGI (MOLT-4; read-out: TGI) was 61.3 µM and the GI50 (MOLT-4; read-out: pGI50 (converted)) was 1.7 µM. The CC50 (MOLT-4; [10]) was > 100 µM, the TGI (MOLT-4; read-out: pTGI (converted)) was 6.17 µM and the GI50 (SK-MEL-2; read-out: GI50) was 1.54 µM. The CC50 (SK-MEL-2; [9]) was 8.54 µM, the TGI (SK-MEL-2; read-out: TGI) was 37.4 µM and the GI50 (SK-MEL-2; read-out: pGI50 (converted)) was 1.62 µM. The CC50 (SK-MEL-2; [10]) was 8.51 µM, the TGI (SK-MEL-2; read-out: pTGI (converted)) was 3.72 µM and the growth at 0.1 µM (M14 [8]) was 100%. The GI50 (NCI-H226; read-out: GI50) was 3.06 µM, the LC50 (NCI-H226; read-out: LC50) was > 100 µM and the TGI (NCI-H226; read-out: TGI) was > 100 µM. The GI50 (NCI-H226; read-out: pGI50 (converted)) was 3.09 µM, the LC50 (NCI-H226; read-out: pLC50 (converted)) was > 100 µM and the TGI (NCI-H226; read-out: pTGI (converted)) was > 100 µM. For the same compound, the GI50 (SR; read-out: GI50) was 1.54 µM, the CC50 (SR; [9]) was > 100 µM and the TGI (SR; read-out: TGI) was 53 µM. The GI50 (SR; read-out: pGI50 (converted)) was 1.55 µM, the CC50 (SR; [10]) was > 100 µM and the TGI (SR; read-out: pTGI (converted)) was 5.75 µM. The growth at 1 µM (SNB-75) was 71%, the growth at 100 µM (NCI-H522) was -15% and the growth at 100 µM (SN12C) was 5%. The growth at 0.01 µM (U-251) was 95%, the GI50 (SF-539; read-out: GI50) was 2.5 µM and the CC50 (SF-539; [9]) was > 100 µM. The TGI (SF-539; read-out: TGI) was 13.2 µM, the GI50 (SF-539; read-out: pGI50 (converted)) was 2.57 µM and the CC50 (SF-539; [10]) was > 100 µM. For the same compound, the TGI (SF-539; read-out: pTGI (converted)) was 13.2 µM.
